# Entries after “also recorded” stand apart in the source; their conditions may differ. Square brackets hold non-standard residues; d marks the D form. Peptide text beside a SMILES is read from it. * marks the point of attachment. Sta = CC(C)C[C@H](N)[C@@H](O)CC(=O)O; Isovaleryl = CC(C)CC(=O)*
# Assays:
# gastric ulcer = conditions: 100 mg doses seven times a day versus placebo; cited from earlier work
# pylorus ligated rat [1] = experiment: Pylorus ligated (Shay) rat; assay type: in vivo; conditions: 20 mg/kg po, 18 hour pylorus ligated rat, previous studies of the applicant
# Method: The role of the proteolytic enzyme, pepsin, in the etiology of ulceration is not completely understood. […] It is also possible that pepsin is entirely responsible for the erosions and that the acid produces pain and retards healing. • 1) Umezawa, H. et al., in J. Antibiotics, 23, 259-262 (1970), disclose the pentapeptide, pepstatin, which has the structure [drawing 4] and which is a specific complexing agent for the enzyme pepsin. […] Pepstatin was administered in 100 mg doses, given seven aimes a day, this dosage being sufficient to inhibit the peptic activity of gastric juice for 18 hours a day. […] J. Gastroent., 14, 929-932 (1979), report the results of a double-blind randomized clinical trial of pepstatin versus placebo in patients having gastric ulcer. Pepstatin was administered in 100 mg doses seven times a day. […] When the two agents were given together, significant ulcer reduction was found after only one-half day of predosing. Carbenoxolone is not an antisecretory or anti-pepsin agent, but acts by stimulating gastric mucus synthesis. • 6) Dajani, E. Z. et al., in J. Pharmacol. Exp. Ther., 210, 373-377 (1979), disclose that, in stress ulceration tests in rats, a combination of cimetidine and propantheline bromide produced synergistic antiulcer activity and that a combination of cimetidine and thiopropazate hydrochloride produced additive antiulcer activity. […]
# [2] = all animal species studied; cited from earlier work
# duodenal ulcer = conditions: 100 mg doses seven times a day versus placebo; cited from earlier work
# [3] = cited from earlier work
# pylorus ligated rat [4] = conditions: pylorus ligated (Shay) rat, Umezawa et al.; cited from earlier work
# [5] = system: pepsin activity in the gastric juice of swine; conditions: added to the feed at >50 ppm; cited from earlier work
# gastric peptic activity = conditions: patients with ulcer dyspepsia, cited from earlier work
# pepsin = conditions: 100 mg doses seven times a day, ulcer patients; cited from earlier work
smiles,measurement,setting,value
"CC(C)CC(=O)N[C@H](C(=O)N[C@H](C(=O)N[C@@H](CC(C)C)[C@@H](O)CC(=O)N[C@@H](C)C(=O)N[C@@H](CC(C)C)[C@@H](O)CC(=O)O)C(C)C)C(C)C [Pepstatin, pepstatin] (Isovaleryl-VV[Sta]A[Sta]-OH)",healing or symptomatology of gastric ulcer,gastric ulcer,not able to detect any influence of pepstatin
same,pepsin activity,pylorus ligated rat [1],completely inhibited pepsin activity
same,ulcer formation,pylorus ligated rat [1],antagonized ulcer formation
same,LD50,[2],exceeded 3000 mg/kg
same,healing or symptomatology of duodenal ulcer,duodenal ulcer,no significant difference between pepstatin and placebo
same,excreted in the feces,"[3]; oral administration, animal studies, within 72 hours",more than 90%
same,absorption upon oral administration,[3]; oral,essentially unabsorbed; also recorded: only poorly absorbed
same,formation of stomach ulcers,pylorus ligated rat [4],prevent the formation of stomach ulcers
same,occurrence of ulcers,[5],prevented the occurrence of ulcers
same,pepsin activity in the gastric juice,[5],inhibited pepsin activity in the gastric juice of swine
same,side effects,gastric peptic activity; daily oral doses of 700 mg for up to three months,no side effects were observed
same,gastric acidity,gastric peptic activity,has no effect on the gastric acidity
same,gastric peptic activity,gastric peptic activity,inhibits gastric peptic activity
same,time for which pepsin activity was inhibited,pepsin,18 hours a day
